Data taken from patent publication US20160101076A1, “Use of Sumoylation Inhibitors for Treating Cancer” (priority 2013, published 2016).

What was measured:
Assay type in all cases: cell-based, human
BT-549 cells = test: CD44 Western blot and CD44+/CD24-/low FACS in BT-549 cells; conditions: for ability to repress CD44 expression with knockdown of TFAP2A: BT549 cells, TFAP2A siRNA, Western blot FIG. 6C; for CD44+/CD24-/low population by FACS analysis / CD44 expression by Western blot: BT-549 cells, FIG. 6A, 10 μM, 2-4 days
Procedure: (§1) The human breast cancer cell lines (MCF-7, SKBR-3, BT-20, BT-549, MCF-10A) were obtained from American Type Culture Collection. sKD-C cells were subcloned from parental MCF-7 cells with stable knockdown of TFAP2C as described (Cyr et al., 2014). ER<-positive tumors and the basal cancer tumor were obtained from surgical resection specimens. Cell suspensions were prepared with gentle collagenase/hyaluronidase (Stemcells) (Ponti et al., 2005). A new cell line was established from the basal tumor cells, called IOWA-1T (manuscript in preparation).
(§2) Western blots were performed as previously described (Cyr et al., 2014; Kulak et al., 2013). For immunoprecipitations anti-TFAP2A, anti-GFP antibody (Life Technologies) or IgG (#sc-2025, Santa Cruz Biotechnology) were cross-linked with Dynabeads protein A (Life Technologies). MCF7 protein was incubated with Dynabeads protein A-Abs complex, protein complexes were washed with DPBS (Gibco) with 0.01% Tween (Research Products International Corp.), and eluted with SDS loading buffer.
(§3) Cells were plated ([…]/10 cm2) and treated with 10 μM gingolic or anacardic acid (Sigma) for 2-4 days and collected for qPCR, Western blot and FACS analysis.
(§4) FACS analysis was performed as previously described (Roederer and Hardy, 2001).

BT-20 cells = test: CD44 Western blot and CD44+/CD24-/low FACS in BT-20 cells; conditions: for ability to repress CD44 expression with knockdown of TFAP2A: BT20 cells, TFAP2A siRNA, Western blot FIG. 6C; for CD44+/CD24-/low population by FACS analysis / CD44 expression by Western blot: BT-20 cells, FIG. 6A, 10 μM, 2-4 days
Procedure: as §1, §2, §3, §4

[1] = test system: cells derived from a primary basal cancer; test: CD44 Western blot and CD44+/CD24-/low FACS in cells from a primary basal breast cancer; conditions: for CD44 expression by Western blot: cells derived from a primary basal cancer, FIG. 6A; for CD44+/hi/CD24-/low CSC population: cells harvested from primary basal breast tumor refractory to chemotherapy, treated in vitro, FACS FIG. 6A
Procedure: In addition, cells from a primary basal breast cancer were treated in vitro in parallel. The cancer was from a patient with locally advanced breast cancer that was refractory to conventional chemotherapy. Remarkably, treatment with GA or AA cleared the CD44^+/hi/CD24^−/low CSC population from the cells harvested from the primary tumor (FIG. 6A, last panel). By contrast, GA/AA treatment of MCF-10A cells, a normal breast cell line model, had no effect on CD44 expression and had no effect on the percentage of cells expressing stem cell markers.
as §1, §2, §3, §4

MCF-10A cells = test: CD44 expression and stem cell markers in normal breast cell line MCF-10A; conditions: MCF-10A normal breast cell line
Procedure: as §1, §2, §3, §4

Structure (SMILES) | ability to repress CD44 expression with knockdown of TFAP2A (BT-549 cells) | CD44+/CD24-/low population by FACS analysis (BT-549 cells) | CD44 expression by Western blot (BT-549 cells) | ability to repress CD44 expression with knockdown of TFAP2A (BT-20 cells) | CD44+/CD24-/low population by FACS analysis (BT-20 cells) | CD44 expression by Western blot (BT-20 cells) | CD44 expression by Western blot [1] | CD44+/hi/CD24-/low CSC population [1] | CD44 expression (MCF-10A cells) | percentage of cells expressing stem cell markers (MCF-10A cells)
CCCCCCCCCCCCCCCc1cccc(O)c1C(=O)O [AA, Anacardic acid (C15:0)] | completely eliminated | significantly reduced | inhibited | completely eliminated | significantly reduced | inhibited | inhibited | cleared | no effect | no effect
CCCCCC/C=C\CCCCCCCc1cccc(O)c1C(=O)O [GA, (Z)-6-(Pentadec-8-enyl)-2-hydroxybenzoic acid] | completely eliminated | significantly reduced | inhibited | completely eliminated | significantly reduced | inhibited | inhibited | cleared | no effect | no effect
